Columns and labels:
[1] = system: MDA-MB-453 cells; assay: Apoptosis, annexin V-FITC method; assay type: cell-based, human
Procedure: (§1) Cell culture and treatment. […] Cells were cultured in DMEM with 10% FCS, 100 U/ml penicillin and 100 μg/ml streptomycin at 37° C. in a humidified atmosphere of 5% CO2. Mitochondrial complex I-deficient (Breen and Scheffler 1979; DeFrancesco et al 1976; Scheffler et al 2004) and complex II-deficient cells (Albayrak et al 2003; Oostveen et al 1995) were grown in DMEM with 10% FCS, […] glucose and non-essential amino acids.
(§2) At approximately 70% confluency, cells were treated with up to 50 μM α-TOS (Sigma), up to 100 μM 3-BP (Aldrich) or 30 ng/ml of human recombinant tumor necrosis factor-related apoptosis—inducing ligand (TRAIL) (Weber et al, 2002) under normoxic or hypoxic conditions. For hypoxia, cells overlaid with nitrogen-purged medium were placed in a hypoxic chamber pre-flushed extensively with nitrogen. The hypoxic chamber with cells was then placed in the incubator as required. α-TOS was dissolved in ethanol and used such that the final ethanol concentration in cell culture medium was <0.1% (v/v). Stock solutions of 3-BP were prepared in PBS prior to use.
(§3) Apoptosis assessment. Apoptosis was quantified using the annexin V-FITC method, which detects phosphatidyl serine externalized in the early phases of apoptosis (Boersma et al, 1996). Briefly, cells were plated at 10^5 per well in 24-well plates and, after an overnight recuperation, treated with α-TOS or 3-BP alone or in combination. Floating and attached cells were harvested, washed with PBS, resuspended in 0.2 ml binding buffer (10 mM Hepes, 140 mM NaCl, 5 mM CaCl2, pH 7.4), incubated for 30 min at 4° C. with 2 μl annexin V-FITC (PharMingen), supplemented with 200 μl of 50 μg/ml propidium iodide (PI; Sigma), and analyzed by flow cytometry (FACScalibur, Becton Dickinson) using channel 1 for annexin V-FITC binding and channel 2 for PI staining. Cell death was quantified as the percentage of cells with increased annexin V binding and PI staining.
RNA interference (RNAi). Short-interfering RNA (siRNA) oligonucleotides with 3′-dTdT overhangs specific for Akt1 were synthesized by Qiagen. The sequences are as follows: target sequence: […] (SEQ ID NO 2); siRNA duplex sequences: sense—r([…] )dTdT (SEQ ID NO 3), antisense—r([…] )dTdT (SEQ ID NO 4). The transfection of cultured MDA-MB-453 cells with siRNA was performed using OligofectAmine (Invitrogen) and OptiMEM according to the manufacturer's instructions. Briefly, cells were allowed to reach 50% confluency and supplemented with […] siRNA pre-incubated with OligofectAmine and overlayed with OptiMEM. Cells were washed 24 h later with PBS, overlayed with complete DMEM and treated as required after an additional 24 h.
Transfection of MDA-MB-453 cells with siRNAs was performed using OligofectAmine and OptiMEM. Briefly, cells were allowed to reach ˜50% confluency and supplemented with 60 pmol/l siRNA pre-incubated with OligofectAmine and overlayed with OptiMEM. Cells were washed 24 h later with PBS, overlaid with complete DMEM, cultured for an additional 24 h, 48 h and transgene expression confirmed using Western blotting before they were used for further experiments.

[2] = system: MCF-7 cells; assay: Apoptosis, annexin V-FITC method; assay type: cell-based, human
Procedure: as §1, §2
Apoptosis assessment. Apoptosis was quantified using the annexin V-FITC method, which detects phosphatidyl serine externalized in the early phases of apoptosis (Boersma et al, 1996). Briefly, cells were plated at 10^5 per well in 24-well plates and, after an overnight recuperation, treated with α-TOS or 3-BP alone or in combination. Floating and attached cells were harvested, washed with PBS, resuspended in 0.2 ml binding buffer (10 mM Hepes, 140 mM NaCl, 5 mM CaCl2, pH 7.4), incubated for 30 min at 4° C. with 2 μl annexin V-FITC (PharMingen), supplemented with 200 μl of 50 μg/ml propidium iodide (PI; Sigma), and analyzed by flow cytometry (FACScalibur, Becton Dickinson) using channel 1 for annexin V-FITC binding and channel 2 for PI staining. Cell death was quantified as the percentage of cells with increased annexin V binding and PI staining. […]

[3] = biological target: T1, SDH/Complex II, Paracoccus denitrificans membranes (Paracoccus denitrificans, UniProt Q59659+Q59660+Q59662); assay: SDH/Complex II activity, DCIP/PMS assay; assay type: biochemical; conditions: 100 or 300 μM α-TOS; compared to control
T1 construct: Membranes were prepared from harvested cells by treating with lysozyme; endogenous in cells; host or cells: membrane vesicles of P. denitrificans CCM 982 (NCIB 8944), endogenous enzyme
Procedure: Preparation of membrane vesicles from Paracoccus denitrificans. P. denitrificans CCM 982 (NCIB 8944) was grown anaerobically at 30° C. in a medium containing 50 mM succinate as the carbon source and 10 mM nitrate as the terminal acceptor. Membranes were prepared from harvested cells by treating with lysozyme according to Burnell et al (1975). After dilution in 0.1 M Na phosphate, pH 7.3, to a final protein concentration of approximately 20 mg/ml, the membranes were stored at −20° C. in 1 ml aliquots until used. The protein concentration was determined using the bicinchoninic acid method and an iEMS plate reader (Labsystem, Finland).
Measurement of mitochondrial complex II and complex I activity. A time course for the reduction of the complex II substrate 2,6-dichlorophenol indophenol (DCIP) by the mitochondrial preparations was followed by measuring the absorbance at 600 nm in 1 cm cuvettes containing a 1 ml reaction volume (ε600=21×10^3 M^−1cm^−1). The reaction components included NADH, 0.5 mM; succinate, 5 mM; KCN, 10 mM; DCIP, 50 μM; PMS, 50 μM. For each assay point, 0.5 mg sample protein was used and α-TOS was added at either 100 or 300 μM as indicated. The change in absorbance of DCIP was measured using a spectrophotometer (UVIKON XL, Secomam) and replicate samples were assayed (n=3). When measuring the complex I (NADH dehydrogenase activity), PMS was omitted. […]

[4] = system: Chinese hamster lung fibroblasts (B1, B10, B9, B9rec cells); assay: ROS, SDH activity and apoptosis in complex I- and complex II-deficient cells; assay type: cell-based
Procedure: as §1
Assessment of ROS accumulation. Cellular ROS were detected with the probe dihydroethidinium (DHE) (Molecular Probes) by flow cytometry (Weber et al, 2003), or by trapping with 5,5-dimethyl-1-pyrroline N-oxide (DMPO; Sigma) using electron paramagnetic resonance (EPR) spectro-scopy (Weber et al, 2003). In some studies, the cells were pre-treated for 1 h with 2 μM MitoQ (James et al, 2005) or coincubated with SOD (PEG-SOD, 750 units/ml; Sigma).
as §3
Complex I- and complex II-deficient cells were also used to confirm the above in vitro results of Example 6.

[5] = compared to parental (B1) or B10 cells

T1 sequence (Q59662 whole entry): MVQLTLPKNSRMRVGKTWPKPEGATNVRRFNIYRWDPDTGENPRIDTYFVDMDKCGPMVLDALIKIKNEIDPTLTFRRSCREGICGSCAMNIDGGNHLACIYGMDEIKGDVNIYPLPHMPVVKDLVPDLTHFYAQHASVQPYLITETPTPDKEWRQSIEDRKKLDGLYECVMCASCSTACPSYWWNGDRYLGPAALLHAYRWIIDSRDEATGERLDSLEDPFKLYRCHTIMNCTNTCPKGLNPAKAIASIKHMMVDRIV
T1 sequence (Q59660 whole entry): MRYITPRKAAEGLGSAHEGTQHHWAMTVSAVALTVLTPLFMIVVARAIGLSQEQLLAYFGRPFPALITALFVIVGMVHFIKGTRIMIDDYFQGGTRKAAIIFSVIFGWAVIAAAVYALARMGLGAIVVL
T1 sequence (Q59659 whole entry): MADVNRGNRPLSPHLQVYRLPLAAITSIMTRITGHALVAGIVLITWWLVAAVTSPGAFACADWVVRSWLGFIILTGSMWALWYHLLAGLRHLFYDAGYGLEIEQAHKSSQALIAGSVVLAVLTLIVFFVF
T1 sequence (Q59661 whole entry, further chain): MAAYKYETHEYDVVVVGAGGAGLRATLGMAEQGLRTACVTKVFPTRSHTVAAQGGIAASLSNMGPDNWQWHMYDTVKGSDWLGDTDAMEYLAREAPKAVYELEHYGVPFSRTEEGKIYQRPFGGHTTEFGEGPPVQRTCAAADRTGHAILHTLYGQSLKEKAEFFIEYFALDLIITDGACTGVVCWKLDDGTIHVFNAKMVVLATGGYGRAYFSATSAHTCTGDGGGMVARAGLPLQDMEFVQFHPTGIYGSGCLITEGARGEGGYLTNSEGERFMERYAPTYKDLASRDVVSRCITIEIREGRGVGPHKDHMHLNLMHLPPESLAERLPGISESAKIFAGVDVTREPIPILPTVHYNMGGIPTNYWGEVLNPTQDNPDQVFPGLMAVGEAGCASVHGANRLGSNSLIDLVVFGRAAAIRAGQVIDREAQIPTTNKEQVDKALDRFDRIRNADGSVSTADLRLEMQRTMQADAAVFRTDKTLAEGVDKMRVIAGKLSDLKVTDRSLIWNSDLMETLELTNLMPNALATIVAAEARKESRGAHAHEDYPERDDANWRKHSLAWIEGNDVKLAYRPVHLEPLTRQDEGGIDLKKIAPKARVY

Structure (SMILES): Cc1c(C)c2c(c(C)c1OC(=O)CCC(=O)O)CC[C@@](C)(CCC[C@H](C)CCC[C@H](C)CCCC(C)C)O2 [Compound 1, α-tocopheryl succinate]
- apoptosis ([1]; MDA-MB-453 (erbB2-high), normoxia or hypoxia): sensitive to apoptosis induced by α-TOS under both normoxia and hypoxia
- apoptosis after Akt1 knock-down ([1]; pre-treated with 60 pM Akt1 siRNA for 24 h, then drug 24 h): sensitizes
- apoptosis after CybL siRNA ([2]; MCF7 cells treated with siRNA against CybL): reduced the levels of apoptosis mediated by α-TOS
- apoptosis ([2]; MCF-7 (erbB2-low), 24 h, normoxia or hypoxia): sensitive to apoptosis induced by α-TOS under both normoxia and hypoxia
- rate of reduction of DCIP (SDH/Complex II activity) [3]: decreased rapidly and significantly after treatment with α-TOS
- apoptosis in B1, B10 and B9 cells [4]: initiated apoptosis
- cell killing in CII-reconstituted B9 cells ([4]; CybL-mutant (B9) cells after reconstitution of CII): restored cell sensitivity to α-TOS-induced killing
- ROS accumulation in CII-dysfunctional B9 cells [4, 5]: lower levels of ROS accumulation
- apoptosis in CII-dysfunctional B9 cells [4, 5]: relatively resistant to apoptosis

— patent US8410056B2, “Pro-oxidant anti-cancer compounds” (priority 2006, dated 2013)
